Patent US20230036854A1, “HETEROCYCLIC SPIRO-COMPOUNDS AS AM2 RECEPTOR INHIBITORS” (THE UNIVERSITY OF SHEFFIELD, priority 2018, published 2023)

Molecular target: T1, AM2 receptor (1321N1 cells transfected with CALCRL+RAMP3) (Homo sapiens, UniProt O60896+Q16602)
T1 construct: host or cells: 1321N1 cells
Assay: AM2 receptor inhibition, LANCE cAMP agonist-antagonist competition assay
Format: cell-based
Details: inhibition of AM induced cAMP activation, read-out: AM2 D2 protocol: pIC50 (converted)
Summary of the method: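 1321N1 cells co-expressing CALCRL and RAMP3 (2500/well) were preincubated with compound for 30 min at room temperature, then stimulated with adrenomedullin at its EC50 dose for 15 min in HBSS/HEPES/BSA buffer, pH 7.4. cAMP was measured by LANCE TR-FRET and normalised to forskolin (100%) and vehicle (0%) controls.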

T1 sequence (Q16602 23-461): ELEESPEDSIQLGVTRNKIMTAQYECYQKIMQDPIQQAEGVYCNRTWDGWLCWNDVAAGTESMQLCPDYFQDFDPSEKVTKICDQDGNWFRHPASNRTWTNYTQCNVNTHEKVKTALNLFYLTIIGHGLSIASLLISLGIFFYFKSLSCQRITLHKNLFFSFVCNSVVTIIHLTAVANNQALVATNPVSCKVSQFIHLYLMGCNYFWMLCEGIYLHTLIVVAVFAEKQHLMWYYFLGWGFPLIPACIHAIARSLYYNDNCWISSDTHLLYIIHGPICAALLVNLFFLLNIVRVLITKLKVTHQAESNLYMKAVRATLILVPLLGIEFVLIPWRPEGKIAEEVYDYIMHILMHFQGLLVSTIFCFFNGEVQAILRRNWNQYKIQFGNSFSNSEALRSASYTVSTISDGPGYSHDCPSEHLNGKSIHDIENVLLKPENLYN
T1 sequence (O60896 24-148): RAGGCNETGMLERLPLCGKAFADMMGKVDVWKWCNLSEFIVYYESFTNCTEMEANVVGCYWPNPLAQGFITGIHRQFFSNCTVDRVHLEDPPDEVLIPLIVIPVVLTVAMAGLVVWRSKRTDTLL

SMILES	IC50 [nM]
CNCc1ccccc1CN(CC(=O)Nc1ccc2c(c1)CC1(C2)C(=O)Nc2ncccc21)C(=O)C1(C)CCN(C(=O)N2CCCC2)CC1 (stereo not shown) [Example 51, 4-Methyl-N-[[2-(methylaminomethyl)phenyl]methyl]-N-[2-oxo-2-[(2-oxospiro[1H-pyrrolo[2,3-b]pyridine-3,2′-indane]-5′-yl)amino]ethyl]-1-(pyrrolidine-1-carbonyl)piperidine-4-carboxamide]	2.34
CNCc1ccccc1CN(CC(=O)Nc1ccc2c(c1)C[C@@]1(C2)C(=O)Nc2ncccc21)C(=O)C1(C)CCN(C(=O)CC2CCNCC2)CC1 [Example 7, (R)-4-Methyl-N-(2-((methylamino)methyl)benzyl)-N-(2-oxo-2-((2′-oxo-1,1′,2′,3-tetrahydrospiro[indene-2,3′-pyrrolo[2,3-b]pyridin]-5-yl)amino)ethyl)-1-(2-(piperidin-4-yl)acetyl)piperidine-4-carboxamide]	4.07
CNCc1ccccc1CN(CC(=O)Nc1ccc2c(c1)C[C@@]1(C2)C(=O)Nc2ncccc21)C(=O)C1(C)CCN(c2ccccc2)CC1 [Example 63, (R)-4-Methyl-N-(2-((methylamino)methyl)benzyl)-N-(2-oxo-2-((2′-oxo-1,1′,2′,3-tetrahydrospiro[indene-2,3′-pyrrolo[2,3-b]pyridin]-5-yl)amino)ethyl)-1-phenylpiperidine-4-carboxamide]	14.5
CNCc1ccccc1CN(CC(=O)Nc1ccc2c(c1)C[C@@]1(C2)C(=O)Nc2ncccc21)C(=O)C1(C)CCN(C(=O)N(C)C)CC1 [Example 53, (R)—N1,N1,4-Trimethyl-N4-(2-((methylamino)methyl)benzyl)-N4-(2-oxo-2-((2′-oxo-1,1′,2′,3-tetrahydrospiro[indene-2,3′-pyrrolo[2,3-b]pyridin]-5-yl)amino)ethyl)piperidine-1,4-dicarboxamide]	14.1
CNCc1ccccc1CN(CC(=O)Nc1ccc2c(c1)C[C@@]1(C2)C(=O)Nc2ncccc21)C(=O)C1(C)CCN(C(=O)CN2CCN(C(C)=O)CC2)CC1 [Example 32, (R)-1-(2-(4-Acetylpiperazin-1-yl)acetyl)-4-methyl-N-(2-((methylamino)methyl)benzyl)-N-(2-oxo-2-((2′-oxo-1,1′,2′,3-tetrahydrospiro[indene-2,3′-pyrrolo[2,3-b]pyridin]-5-yl)amino)ethyl)piperidine-4-carboxamide]	2.34
CNCc1ccccc1CN(CC(=O)Nc1ccc2c(c1)C[C@@]1(C2)C(=O)Nc2ncccc21)C(=O)C1(C)CCN(C(=O)CC2CC2)CC1 [Example 27, (R)-1-(2-Cyclopropylacetyl)-4-methyl-N-(2-((methylamino)methyl)benzyl)-N-(2-oxo-2-((2′-oxo-1,1′,2′,3-tetrahydrospiro[indene-2,3′-pyrrolo[2,3-b]pyridin]-5-yl)amino)ethyl)piperidine-4-carboxamide]	95.5
CCC1(C(=O)N(CC(=O)Nc2ccc3c(c2)C[C@@]2(C3)C(=O)Nc3ncccc32)Cc2ccccc2CNC)CCN(C(=O)COCCOCCOC)CC1 [Example 74, (R)-4-Ethyl-1-(2-(2-(2-methoxyethoxy)ethoxy)acetyl)-N-(2-((methylamino)methyl)benzyl)-N-(2-oxo-2-((2′-oxo-1,1′,2′,3-tetrahydrospiro[indene-2,3′-pyrrolo[2,3-b]pyridin]-5-yl)amino)ethyl)piperidine-4-carboxamide]	8.71
CNCc1ccccc1CN(CC(=O)Nc1ccc2c(c1)CC1(C2)C(=O)Nc2ncccc21)C(=O)C1(C)CCN(C(=O)CN2CCNCC2)CC1 (stereo not shown) [Example 30, 4-Methyl-N-(2-((methylamino)methyl)benzyl)-N-(2-oxo-2-((2′-oxo-1,1′,2′,3-tetrahydrospiro[indene-2,3′-pyrrolo[2,3-b]pyridin]-5-yl)amino)ethyl)-1-(2-(piperazin-1-yl)acetyl)piperidine-4-carboxamide]	0.589
CCC1(C(=O)N(CC(=O)Nc2ccc3c(c2)C[C@@]2(C3)C(=O)Nc3ncccc32)Cc2ccccc2CNC)CCN(C(=O)C(C)(C)F)CC1 [Example 88, (R)-4-Ethyl-1-(2-fluoro-2-methylpropanoyl)-N-(2-((methylamino)methyl)benzyl)-N-(2-oxo-2-((2′-oxo-1,1′,2′,3-tetrahydrospiro[indene-2,3′-pyrrolo[2,3-b]pyridin]-5-yl)amino)ethyl)piperidine-4-carboxamide]	2.45
CNCc1ccccc1CN(CC(=O)Nc1ccc2c(c1)C[C@@]1(C2)C(=O)Nc2ncccc21)C(=O)C1(C)CCN(C(=O)CN)CC1 [Example 28, (R)-1-(2-Aminoacetyl)-4-methyl-N-(2-((methylamino)methyl)benzyl)-N-(2-oxo-2-((2′-oxo-1,1′,2′,3-tetrahydrospiro[indene-2,3′-pyrrolo[2,3-b]pyridin]-5-yl)amino)ethyl)piperidine-4-carboxamide]	3.55

The next lines start with the values.

IC50 [nM]	SMILES
4.07	CCC1(C(=O)N(CC(=O)Nc2ccc3c(c2)C[C@@]2(C3)C(=O)Nc3ncccc32)Cc2ccccc2CNC)CCN(C(=O)NC)CC1 [Example 100]
13.2	CCC1(C(=O)N(CC(=O)Nc2ccc3c(c2)C[C@@]2(C3)C(=O)Nc3ncccc32)Cc2ccccc2CNC)CCN(C(=O)c2cc(C(C)(C)C)nn2C)CC1 [Example 92, (R)-1-(3-(tert-Butyl)-1-methyl-1H-pyrazole-5-carbonyl)-4-ethyl-N-(2-((methylamino)methyl)benzyl)-N-(2-oxo-2-((2′-oxo-1,1′,2′,3-tetrahydrospiro[indene-2,3′-pyrrolo[2,3-b]pyridin]-5-yl)amino)ethyl)piperidine-4-carboxamide]
107	CCC1(C(=O)N(CC(=O)Nc2ccc3c(c2)C[C@@]2(C3)C(=O)Nc3ncccc32)Cc2ccccc2CNC)CCN(C(=O)N2CCCCC2)CC1 [Example 104, (R)-4-Ethyl-N-(2-((methylamino)methyl)benzyl)-N-(2-oxo-2-((2′-oxo-1,1′,2′,3-tetrahydrospiro[indene-2,3′-pyrrolo[2,3-b]pyridin]-5-yl)amino)ethyl)-1-(piperidine-1-carbonyl) piperidine-4-carboxamide]
10.5	CCC1(C(=O)N(CC(=O)Nc2ccc3c(c2)C[C@@]2(C3)C(=O)Nc3ncccc32)Cc2ccccc2CNC)CCS(=O)(=O)CC1 [Example 147, (R)-4-Ethyl-N-(2-((methylamino)methyl)benzyl)-N-(2-oxo-2-((2′-oxo-1,1′,2′,3-tetrahydrospiro[indene-2,3′-pyrrolo[2,3-b]pyridin]-5-yl)amino)ethyl)tetrahydro-2H-thiopyran-4-carboxamide 1,1-dioxide]
174	CNCc1ccccc1CN(CC(=O)Nc1ccc2c(c1)C[C@@]1(C2)C(=O)Nc2ncccc21)C(=O)C1(COC)CCN(C(C)=O)CC1 [Example 126, (R)-1-Acetyl-4-(methoxymethyl)-N-(2-((methylamino)methyl)benzyl)-N-(2-oxo-2-((2′-oxo-1,1′,2′,3-tetrahydrospiro[indene-2,3′-pyrrolo[2,3-b]pyridin]-5-yl)amino)ethyl)piperidine-4-carboxamide]
2.88	CNCc1ccccc1CN(CC(=O)Nc1ccc2c(c1)C[C@@]1(C2)C(=O)Nc2ncccc21)C(=O)C1(C)CCCN(C(C)=O)CC1 (stereo partly drawn) [Example 149, 1-Acetyl-4-methyl-N-(2-((methylamino)methyl)benzyl)-N-(2-oxo-2-(((R)-2′-oxo-1,1′,2′,3-tetrahydrospiro[indene-2,3′-pyrrolo[2,3-b]pyridin]-5-yl)amino)ethyl)azepane-4-carboxamide]
